In the supplement of paper PMC11451515:

What was measured:
Settings in all cases: 48 h
P12-Ichikawa [1] = test: AUC of viability dose-response curve (% viability x log10 dose units); higher = less sensitive
In short: (§1)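 Area under the curve was integrated by trapezoidal rule from a log-logistic fit of normalised viability, with curves exceeding full viability scaled and quality-control failures removed. The fit had four parameters over log10 doses. Viability came from CellTiter-Glo One luminescence, normalised per plate to DMSO and cell-free wells, after leukemia cells adapted to each medium (500 or 1000 cells/well, 1536-well plates) were exposed to library compounds in DMSO for 48 h at 37°C. The 11 threefold doses ran from 47 μM to 0.79 nM.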

NOMO1 [2] = test: as above
In short: as §1

SEM cells [3] = test: as above
In short: as §1

P12-Ichikawa [4] = test: cell viability relative to DMSO control; higher = less cytotoxic
In short: (§2)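 NOMO1 or SEM cells were plated at 500 cells/well and P12-Ichikawa cells at 1000 cells/well in 1536-well plates (5 μl), after each leukemia line had been adapted for at least four passages in each medium. Pin dosing delivered library compounds in DMSO at 11 threefold concentrations, 47 μM to 0.79 nM. CellTiter-Glo One luminescence was read after 48 h at 37°C. Viability is reported as a per-plate percentage of DMSO wells, with cell-free wells as background.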

NOMO1 [5] = test: as above
In short: as §2

SEM cells [6] = test: as above
In short: as §2

CCNC(=O)c1cc2c(-c3cc(OCCN4CCCC4)c(Cl)cc3Cl)nc(N)nc2s1
AUC of viability dose-response curve
Settings	NOMO1 [2]	P12-Ichikawa [1]	SEM cells [3]
HPLM + 10% dialyzed FBS	381	415	379
RPMI 5 mM glucose + 10% FBS	355	389	375
RPMI 5 mM glucose + 10% dialyzed FBS	373	380	368

cell viability [%]
Settings	NOMO1 [5]	P12-Ichikawa [4]	SEM cells [6]
HPLM + 10% dialyzed FBS, 0.000781 µM	105	98.3	114
HPLM + 10% dialyzed FBS, 0.00234 µM	121	103	112
HPLM + 10% dialyzed FBS, 0.00702 µM	92.7	109	112
HPLM + 10% dialyzed FBS, 0.0211 µM	107	108	101
HPLM + 10% dialyzed FBS, 0.0632 µM	102	102	104
HPLM + 10% dialyzed FBS, 0.19 µM	104	101	114
HPLM + 10% dialyzed FBS, 0.569 µM	105	108	101
HPLM + 10% dialyzed FBS, 1.71 µM	86.6	92.8	95.2
HPLM + 10% dialyzed FBS, 5.12 µM	47.3	62.9	32.2
HPLM + 10% dialyzed FBS, 15.4 µM	17.2	53.6	20.1
HPLM + 10% dialyzed FBS, 46.1 µM	15.8	44.9	19.4
RPMI 5 mM glucose + 10% FBS, 0.000781 µM	84.7	102	103
RPMI 5 mM glucose + 10% FBS, 0.00234 µM	93.6	91.9	108
RPMI 5 mM glucose + 10% FBS, 0.00702 µM	95.6	106	117
RPMI 5 mM glucose + 10% FBS, 0.0211 µM	85.6	97	96.6
RPMI 5 mM glucose + 10% FBS, 0.0632 µM	95.8	98.4	112
RPMI 5 mM glucose + 10% FBS, 0.19 µM	109	95.8	112
RPMI 5 mM glucose + 10% FBS, 0.569 µM	88.2	97.2	112
RPMI 5 mM glucose + 10% FBS, 1.71 µM	88.9	77.6	86.9
RPMI 5 mM glucose + 10% FBS, 5.12 µM	32.3	47.1	31.9
RPMI 5 mM glucose + 10% FBS, 15.4 µM	13.2	34	21.8
RPMI 5 mM glucose + 10% FBS, 46.1 µM	10.1	35.5	18.7
RPMI 5 mM glucose + 10% dialyzed FBS, 0.000781 µM	107	102	96.2
RPMI 5 mM glucose + 10% dialyzed FBS, 0.00234 µM	103	96.5	98.6
RPMI 5 mM glucose + 10% dialyzed FBS, 0.00702 µM	115	101	92.2
RPMI 5 mM glucose + 10% dialyzed FBS, 0.0211 µM	111	94.7	110
RPMI 5 mM glucose + 10% dialyzed FBS, 0.0632 µM	82.8	96	98.7
RPMI 5 mM glucose + 10% dialyzed FBS, 0.19 µM	107	97.6	112
RPMI 5 mM glucose + 10% dialyzed FBS, 0.569 µM	93.2	90.5	98
RPMI 5 mM glucose + 10% dialyzed FBS, 1.71 µM	76.8	73.4	68.3
RPMI 5 mM glucose + 10% dialyzed FBS, 5.12 µM	51.2	42	30.3
RPMI 5 mM glucose + 10% dialyzed FBS, 15.4 µM	18.3	36.5	19.4
RPMI 5 mM glucose + 10% dialyzed FBS, 46.1 µM	12.5	31.5	19.1

C\C1=C\N([C@H]2C[C@H](N=[N+]=[N-])[C@@H](CO)O2)C(=O)NC1=O
AUC of viability dose-response curve
Settings	NOMO1 [2]	P12-Ichikawa [1]	SEM cells [3]
HPLM + 10% dialyzed FBS	365	419	388
RPMI 5 mM glucose + 10% FBS	339	425	434
RPMI 5 mM glucose + 10% dialyzed FBS	362	452	425

cell viability [%]
Settings	NOMO1 [5]	P12-Ichikawa [4]	SEM cells [6]
HPLM + 10% dialyzed FBS, 0.000781 µM	94.1	101	65.4
HPLM + 10% dialyzed FBS, 0.00234 µM	109	108	68.8
HPLM + 10% dialyzed FBS, 0.00702 µM	99.4	107	82.4
HPLM + 10% dialyzed FBS, 0.0211 µM	105	120	71
HPLM + 10% dialyzed FBS, 0.0632 µM	111	111	80.8
HPLM + 10% dialyzed FBS, 0.19 µM	120	111	93.1
HPLM + 10% dialyzed FBS, 0.569 µM	109	111	95.4
HPLM + 10% dialyzed FBS, 1.71 µM	61	120	86.5
HPLM + 10% dialyzed FBS, 5.12 µM	29.7	115	81.6
HPLM + 10% dialyzed FBS, 15.4 µM	19.8	23.2	84.3
HPLM + 10% dialyzed FBS, 46.1 µM	25.7	15.1	79.3
RPMI 5 mM glucose + 10% FBS, 0.000781 µM	88.2	99.8	82.5
RPMI 5 mM glucose + 10% FBS, 0.00234 µM	109	120	85.6
RPMI 5 mM glucose + 10% FBS, 0.00702 µM	105	122	88.9
RPMI 5 mM glucose + 10% FBS, 0.0211 µM	106	111	89.3
RPMI 5 mM glucose + 10% FBS, 0.0632 µM	96.7	116	84.8
RPMI 5 mM glucose + 10% FBS, 0.19 µM	97.5	116	101
RPMI 5 mM glucose + 10% FBS, 0.569 µM	106	121	88.4
RPMI 5 mM glucose + 10% FBS, 1.71 µM	29.3	121	104
RPMI 5 mM glucose + 10% FBS, 5.12 µM	15.1	119	92.2
RPMI 5 mM glucose + 10% FBS, 15.4 µM	14.3	34.4	101
RPMI 5 mM glucose + 10% FBS, 46.1 µM	10.2	25.3	82.2
RPMI 5 mM glucose + 10% dialyzed FBS, 0.000781 µM	107	97.1	72.2
RPMI 5 mM glucose + 10% dialyzed FBS, 0.00234 µM	110	109	83.9
RPMI 5 mM glucose + 10% dialyzed FBS, 0.00702 µM	109	112	96
RPMI 5 mM glucose + 10% dialyzed FBS, 0.0211 µM	110	101	98.4
RPMI 5 mM glucose + 10% dialyzed FBS, 0.0632 µM	105	113	117
RPMI 5 mM glucose + 10% dialyzed FBS, 0.19 µM	103	111	92
RPMI 5 mM glucose + 10% dialyzed FBS, 0.569 µM	113	116	105
RPMI 5 mM glucose + 10% dialyzed FBS, 1.71 µM	68.6	110	71.8
RPMI 5 mM glucose + 10% dialyzed FBS, 5.12 µM	20.8	103	93.2
RPMI 5 mM glucose + 10% dialyzed FBS, 15.4 µM	19.6	79.9	85.7
RPMI 5 mM glucose + 10% dialyzed FBS, 46.1 µM	18.9	62	62.4
